{
  "source": "paper PMC8821551",
  "about": "“Binding of cationic analogues of α-MSH to lipopolysaccharide and disruption of the cytoplasmic membranes caused bactericidal action against Escherichia coli” (Scientific Reports, 2022)",
  "key": {"dye-loaded E. coli cells": {"test_system": "dye-loaded E. coli cells", "experiment": "Viability of DiSC3(5) dye-loaded cells by plating", "format": "cell-based, Escherichia coli", "settings": "dye-loaded cells 10^6, HEPES-glucose buffer, two different days", "method": "The membrane depolarization of E. coli cells was determined using a potentiometric fluorescent probe DiSC3(5), as described elsewhere. Briefly, mid-log phase E. coli cells were diluted to 10^6 CFU/mL in the same HEPES-glucose buffer and were incubated with DiSC3(5) and EDTA at 0.4 µM and 0.2 mM concentrations, respectively, for 1 h in the dark at 37 °C, till the maximum uptake of the probe occurred. Increasing concentrations of the studied peptides from 1 µM to 10 µM were then added to these dye-loaded cells in a quartz cuvette, and the fluorescence intensity was measured on spectrofluorimeter (Shimadzu RF-5301 PC) set as excitation at 622 nm and emission at 670 nm. The increase in fluorescence intensity accounted for the dissipation of membrane potential caused due to peptide treatment. Cells treated with 10 µM melittin were used as a positive control. Simultaneously, the dye-loaded cells were plated onto LB agar to estimate bacterial cell death.\nFigure S1: Survival of dye-loaded cells (10^6) treated with various concentrations of peptides that correspond to the inner membrane depolarization. The dye-loaded E. coli cells suspended in HEPES-glucose buffer ([…]) were incubated with different concentration of α-MSH and its analogues for 2 minutes and further diluted in the same buffer and plated on LB agar plates. The plates were further incubated at 37 °C for 16 h. Next day the colonies were counted.^1 The experiment was performed on two different days and the representative values (mean ± SE) are shown in graph. (⁎, P < 0.05; ⁎⁎, P < 0.01, compared to that of control at the same concentration)."}, "E. coli ATCC 25922": {"test_system": "E. coli ATCC 25922", "experiment": "Killing assay (killing kinetics), logarithmic phase cells", "format": "cell-based, Escherichia coli", "settings": "for concentration at which a bactericidal effect (> 3 log reduction) was achieved: logarithmic phase E. coli cells (Fig. 1); for log reduction in cell viability: average ± SE, SEM", "method": "For this study, a well-characterized strain of E. coli (ATCC 25922) was used. The strain was stored at − 80 °C in 15% (v/v) glycerol until sub-cultured onto LB agar plates for use.\nThe antibacterial activity of α-MSH and its cationic analogues was determined against both logarithmic (2–3 h) and stationary (16–18 h) phase of E. coli cells in LB medium. The bacterial suspension was pelleted, washed, and diluted in HEPES-glucose buffer (5 mM HEPES, 20 mM glucose, pH 7.4) to adjust the cell density by measuring the OD = 0.5 (10^8 CFU/mL) at 600 nm using a spectrophotometer. This suspension was used to obtain the desired inoculum sizes (10^5 CFU/mL, 10^6 CFU/mL, and 10^7 CFU/mL). The inoculums were exposed to various concentrations of peptides (1 µM, 2 µM, 5 µM, and 10 µM) and incubated at 37 °C. Untreated E. coli cells were also included as a control. At selected time points (0 min, 15 min, 30 min, 60 min, and 120 min), aliquots were taken out, and survival of E. coli cells was determined by quantitative plating on LB agar after appropriate dilution in the same buffer. The plates were incubated overnight at 37 °C, followed by colony counting. Each experiment was performed at least three times on three independent days."}, "LPS from E. coli O55:B5": {"test_system": "LPS from E. coli O55:B5", "experiment": "LPS binding assay (BODIPY-TR-cadaverine displacement)", "design": "species or system Escherichia coli", "settings": "BC displacement, LPS 50 μg/mL, 5 µM BC, 50 mM Tris buffer pH 7.4, peptide 0.25 to 20 µM, Hill equation fit, mean Kd ± SD of two independent experiments, read-out: Kd (dissociation constant) with LPS", "method": "The binding of α-MSH and its analogues to LPS was checked using BODIPY-TR-cadaverine (BC) as a fluorescent probe[24],[42]. BC fluorescence decreases when bound to cell-free LPS and increases when it is freely accessible in solution. LPS (50 μg/mL) from E. coli O55:B5 (Sigma-Aldrich, India) was incubated with 5 µM of BC in 50 mM Tris buffer (pH 7.4) for 4 h. Next, 800 µL of this LPS-BC mixture was added to varying concentrations (0.25 µM to 20 µM) of the peptides in a quartz cuvette, and the BC fluorescence was measured on a spectrofluorimeter (Shimadzu RF-5301 PC) with excitation at 580 nm and emission at 620 nm. Each experiment was done in duplicate independently. Increase in fluorescence intensities with increase in concentration of peptides were plotted and the dissociation constant (Kd) was calculated from each individual data set and is presented as mean value ± SD using Igor Pro 6.36 (Y = Bmax × Xˆh/(Kdˆh + Xˆh); where X: concentration of peptide (µM), Y: fluorescence intensity (a.u.), h: Hill slope)[43]. The molecular mass of LPS was taken as 20,000 Da as described elsewhere, and its concentration was calculated accordingly.\nTable S1: The dissociation constant (Kd) of α-MSH and its analogues with LPS. […]"}, "E. coli cells": {"test_system": "E. coli cells", "experiment": "LPS competitive inhibition assay", "format": "cell-based, Escherichia coli", "settings": "peptide fixed at 10 µM, free LPS beyond 128 µg/mL; 10^5 CFU/mL mid-log cells, 90 min, 37 °C; peptide without LPS = 100% mortality", "method": "To determine whether LPS could influence the peptide’s antimicrobial activity, the potency of the most charged analogue, KKK-MSH, was evaluated against E. coli in the presence of LPS, using the protocol reported elsewhere. Peptide and LPS from E. coli […] (Sigma-Aldrich, India) in equal volume (50 µL) were incubated in a 96-well sterile plate at 37 °C for 1 h. After that, 100 μL of mid-log E. coli cells were added (at a final concentration of 10^5 CFU/mL) to the LPS-peptide mixture for 90 min at 37 °C. The peptide concentration was kept constant at 10 µM, and the concentration of LPS was varied from 2 to 1024 μg/mL. After incubation, 50 μL of the reaction mixture from each well was diluted with an appropriate amount of HEPES-glucose buffer, spread on LB agar plates, and kept at 37 °C for 16 h. Then on the next day, colonies were counted and compared with control (in the absence of LPS, cells treated with only peptide were considered 100% mortal). Mortality was calculated using the following formula: %survival=CFU/mLintreatedsample/CFU/mLinuntreatedsample×100Cellmortality(%)=100-%survival"}, "[1]": {"settings": "peptide 10 µM, 2 min of exposure"}},
  "note": "Residues, ends and D or L forms follow the SMILES beside them.",
  "data": [
    {"molecule": "CSCC[C@H](NC(=O)[C@H](CCCCN)NC(=O)[C@H](Cc1ccc(O)cc1)NC(=O)[C@H](CCCCN)NC(C)=O)C(=O)N[C@@H](C)C(=O)N[C@@H](Cc1c[nH]cn1)C(=O)N[C@@H](Cc1ccccc1)C(=O)N[C@@H](CCCNC(=N)N)C(=O)N[C@@H](Cc1c[nH]c2ccccc12)C(=O)NCC(=O)N[C@@H](CCCCN)C(=O)N1CCC[C@H]1C(=O)N[C@H](C(N)=O)C(C)C", "note": "[KKA-MSH] (Ac-KYKMAHFRWGKPV-NH2)", "values": [
      {"measurement": "log reduction in cell viability of dye-loaded cells", "setting": "dye-loaded E. coli cells; peptide 5 µM, 2 min exposure", "result": 1, "unit": "log"},
      {"measurement": "log reduction in cell viability of dye-loaded cells", "setting": "dye-loaded E. coli cells; [1]", "result": 1, "unit": "log"},
      {"measurement": "concentration at which a bactericidal effect (> 3 log reduction) was achieved", "setting": "E. coli ATCC 25922", "result": 5, "unit": "µM"},
      {"measurement": "log reduction in cell viability", "setting": "E. coli ATCC 25922; logarithmic phase, 10^5 CFU/mL, HEPES-glucose buffer pH 7.4, 37 °C, peptide 1 µM, 1 h, three independent experiments", "result": "1.8 ± 0.1", "unit": "log"},
      {"measurement": "log reduction in cell viability", "setting": "E. coli ATCC 25922; logarithmic phase, 10^5 CFU/mL, HEPES-glucose buffer pH 7.4, 37 °C, peptide 1 µM, 2 h, three independent experiments", "result": "2.1 ± 0.1", "unit": "log"},
      {"measurement": "log reduction in cell viability", "setting": "E. coli ATCC 25922; logarithmic phase, 10^5 CFU/mL, HEPES-glucose buffer pH 7.4, 37 °C, peptide 2 µM, 1 h, three independent experiments", "result": "2.7 ± 0.3", "unit": "log"},
      {"measurement": "log reduction in cell viability", "setting": "E. coli ATCC 25922; logarithmic phase, 10^5 CFU/mL, HEPES-glucose buffer pH 7.4, 37 °C, peptide 2 µM, 2 h, three independent experiments", "result": "2.9 ± 0.2", "unit": "log"},
      {"measurement": "change of killing activity at 5 µM against lower concentrations, in words", "setting": "E. coli ATCC 25922; logarithmic phase, 10^5 CFU/mL, peptide 5 µM", "result": "no change in its activity"},
      {"measurement": "bactericidal effect (> 3 log reduction), in words", "setting": "E. coli ATCC 25922; logarithmic phase, 10^5 CFU/mL, peptide 2, 5 and 10 µM, 1 h of incubation", "result": "accomplished bactericidal effect"},
      {"measurement": "log reduction in cell viability", "setting": "E. coli ATCC 25922; logarithmic phase, 10^6 CFU/mL, peptide 10 µM, 2 h, three independent days", "result": "3.5 ± 0.2", "unit": "log"},
      {"measurement": "log reduction in cell viability", "setting": "E. coli ATCC 25922; logarithmic phase, 10^7 CFU/mL, peptide 10 µM, 2 h, three independent days", "result": "2.7 ± 0.02", "unit": "log"}
    ]},
    {"molecule": "CSCC[C@H](NC(=O)[C@H](CCCCN)NC(=O)[C@H](Cc1ccc(O)cc1)NC(=O)[C@H](CCCCN)NC(C)=O)C(=O)N[C@@H](CCCCN)C(=O)N[C@@H](Cc1c[nH]cn1)C(=O)N[C@@H](Cc1ccccc1)C(=O)N[C@@H](CCCNC(=N)N)C(=O)N[C@@H](Cc1c[nH]c2ccccc12)C(=O)NCC(=O)N[C@@H](CCCCN)C(=O)N1CCC[C@H]1C(=O)N[C@H](C(N)=O)C(C)C", "note": "[KKK-MSH] (Ac-KYKMKHFRWGKPV-NH2)", "values": [
      {"measurement": "Kd", "setting": "LPS from E. coli O55:B5", "result": "9.8 ± 6.3", "unit": "µM"},
      {"measurement": "log reduction in cell viability of dye-loaded cells", "setting": "dye-loaded E. coli cells; peptide 5 µM, 2 min exposure", "result": 1.73, "unit": "log"},
      {"measurement": "log reduction in cell viability of dye-loaded cells", "setting": "dye-loaded E. coli cells; [1]", "result": 2.1, "unit": "log"},
      {"measurement": "killing of E. coli cells in the presence of free LPS", "setting": "E. coli cells", "result": "less than 20%"},
      {"measurement": "concentration at which a bactericidal effect (> 3 log reduction) was achieved", "setting": "E. coli ATCC 25922", "result": 1, "unit": "µM"},
      {"measurement": "incubation time to complete eradication of the cells", "setting": "E. coli ATCC 25922; logarithmic phase, 10^5 CFU/mL, HEPES-glucose buffer, 37 °C, peptide 1 µM", "result": "≤ 15", "unit": "min"},
      {"measurement": "incubation time to complete eradication of the cells", "setting": "E. coli ATCC 25922; logarithmic phase, 10^5 CFU/mL, HEPES-glucose buffer, 37 °C, peptide 2 µM", "result": "≤ 15", "unit": "min"},
      {"measurement": "log reduction in cell viability (bactericidal effect)", "setting": "E. coli ATCC 25922; logarithmic phase, 10^5 CFU, peptide 1 µM, within 15 min", "result": "> 3", "unit": "log"},
      {"measurement": "complete eradication of the cells, in words", "setting": "E. coli ATCC 25922; logarithmic phase, 10^6 CFU/mL, peptide 1 µM", "result": "not at 1 µM concentration"},
      {"measurement": "incubation time to complete eradication of the cells", "setting": "E. coli ATCC 25922; logarithmic phase, 10^6 CFU/mL, peptide 2 µM", "result": 60, "unit": "min"},
      {"measurement": "incubation time to complete eradication of the cells", "setting": "E. coli ATCC 25922; logarithmic phase, 10^6 CFU/mL, peptide 5 µM", "result": 30, "unit": "min"},
      {"measurement": "incubation time to complete eradication of the cells", "setting": "E. coli ATCC 25922; logarithmic phase, 10^6 CFU/mL, peptide 10 µM", "result": 15, "unit": "min"},
      {"measurement": "incubation time to no viable cells", "setting": "E. coli ATCC 25922; logarithmic phase, 10^7 CFU/mL, peptide 10 µM", "result": 1, "unit": "h"},
      {"measurement": "lowest concentration at which the bactericidal effect was maintained", "setting": "E. coli ATCC 25922; logarithmic phase, high cell density", "result": 2, "unit": "µM"}
    ]}
  ]
}
